Measurements published in patent publication US20250206773A1, “FORMS AND COMPOSITIONS OF SODIUM CHENODEOXYCHOLATE” (Syntis Bio, Inc., priority 2022, published 2025).

Experiments:
[1] = Polymorph screening: slow evaporation; type: physicochemical
Description: Five stock solutions (with MeOH, water, 2,2,2-trifluoroethanol, MeOH:EtOAc (1:1 v/v) and MeOH:acetone (1:1 v/v)) were prepared with NaCDC Form B at RT. The final concentration of each solution was near that obtained from the Solubility Studies described in Example 8. Around 19-23 mg of NaCDC Form B was weighed into 1.6 mL HPLC vials (or 8 mL flask in the case of stock solutions with MeOH:EtOAc and MeOH:acetone) and dissolved in appropriate solvents at RT. In the case of the stock solution with water, around 40 mg NaCDC Form B was used. The experiments were kept at RT for 1 h with stirring (500 rpm) and then the solutions were filtered with 0.45 μm PTFE filters. During filtration of the stock solution with water, a foaming phenomenon was observed, and therefore, filtration was performed slowly and in several steps. The filtered solutions were then evaporated slowly under atmospheric pressure at 25° C. (experiments EV01-05) or at 50° C. (experiments EV06-09). After complete evaporation of the solvent, the solids were recovered and analyzed by XRPD. Depending on the results obtained from the XRPD analysis and also material availability, some experiments were analyzed by HPLC and TG/DSC.

[2] = Intrinsic dissolution, USP rotating disk apparatus; type: physicochemical
Description: For the intrinsic dissolution studies, the following HPLC method was used: [table] Intrinsic dissolution profiles of NaCDC Form A and Form B were determined from a drug disk of constant surface area using a USP rotating disk apparatus in phosphate buffer (pH 7.4) at 37° C. […] A typical apparatus consisted of a punch and a die, whose base is attached to a surface plate. […] The punch was then inserted in the die cavity and the test material was compressed with a hydraulic press. A non-disintegrating compact of the material was formed in the die cavity with a single face of defined area exposed on the bottom of the die. The die assembly was then attached to a shaft with a holder and the surface plate was removed. The shaft holding the die assembly was positioned into the dissolution medium at a distance not less than 1.0 cm from the bottom of the vessel. In this procedure, fluid flow was generated by the rotation of the die. The amount of material dissolved was measured as a function of time. In particular, the cumulative amount dissolved at each time point was corrected for losses due to sampling. […] Method parameters are summarized below: [table]

[3] = type: physicochemical; settings: pH 7.4
Description: Solubility curve measurements of NaCDC Form A and Form B were performed using a Crystal16 automatic crystallizer (Technobis Crystallization Systems), having an array of 16 microreactors equipped with turbidimeters for the determination of clear and cloud points. Samples of four different concentrations for each crystalline form were prepared by weighing accurately different amounts of each sample and adding 1000 μL of phosphate buffer (pH 7.4) to each vial. The suspensions thus obtained were stirred using a magnetic stirrer and heated from 0° C. to 90° C. at 0.5° C./min. The clear point for each sample was determined and plotted to obtain a crystallization curve (FIG. 13).

[4] = Heating of solid at 315° C. / 360° C., then XRPD and HPLC; type: physicochemical
Description: Based on the results obtained from the TG/DSC analysis, a sample of NaCDC Form B was heated at 315° C. and another sample at 360° C. After heating, the samples were cooled to room temperature and analyzed by XRPD (FIG. 16). […] The material obtained after heating a sample at 360° C. was amorphous.

[5] = Polymorph screening: solvent drop grinding; type: physicochemical; settings: grinding 10 min. at RT
Description: Around 20 mg of NaCDC Form B was ground together with 10 μL aliquots of the corresponding solvent for 10 minutes at RT using an agate mortar with pestle. When total evaporation of the solvent was observed, another aliquot of 10 μL solvent was added and this procedure was repeated until experiment completion time. All solids were analyzed by XRPD. For the experiments where phase transformation was observed via XRPD, additional analyses of TG/DSC and/or HPLC were performed.

[6] = EV07, 2,2,2-Trifluoroethanol (TFE) 50.88 mg/mL, solids after 4 days at 50° C. and atm. pres.

In the case of `C[C@H](CCC(=O)[O-])[C@H]1CC[C@H]2[C@@H]3[C@H](O)C[C@@H]4C[C@H](O)CC[C@]4(C)[C@H]3CC[C@]12C.[Na+]` [Form B, sodium chenodeoxycholate], the “HPLC purity (%) at 212 nm” value ([1]; EV01, Methanol (MeOH) 100.80 mg/mL, solids after 4 days at 25-30° C. and atm. pres.) is reported as 91.70%, the “HPLC purity (%) at 212 nm” value ([1]; EV02, Water (H2O) 204.39 mg/mL, solids after 5 days at 25-30° C. and atm. pres.) is reported as 93.71% and the “HPLC purity (%) at 212 nm” value ([1]; EV03, 2,2,2-Trifluoroethanol (TFE) 50.88 mg/mL, solids after 7 days at 25-30° C. and atm. pres.) is reported as 88.27%. For the same compound, the “HPLC purity (%) at 212 nm” value ([1]; EV04, MeOH:EtOAc (1:1 v/v) 20.49 mg/mL, solids after 4 days at 25-30° C. and atm. pres.) was 86.46%, the “HPLC purity (%) at 212 nm” value ([1]; EV05, MeOH:Acetone (1:1 v/v) 20.19 mg/mL, solids after 4 days at 25-30° C. and atm. pres.) was 90.22% and the “HPLC purity (%) at 212 nm” value ([1]; EV06, Water (H2O) 204.39 mg/mL, solids after several hours (overnight) at 50° C. and atm. pres.) was 93.24%. For the same compound, the “HPLC purity (%) at 212 nm” value [1, 6] was 91.69%, the XRPD [1, 6] was “S4 + SM, P.O” and the “HPLC purity (%) at 212 nm” value ([1]; EV08, MeOH:EtOAc (1:1 v/v) 20.49 mg/mL, solids after several hours (overnight) at 50° C. and atm. pres.) was 71.43%. For the same compound, the “HPLC purity (%) at 212 nm” value ([1]; EV09, MeOH:Acetone (1:1 v/v) 20.19 mg/mL, solids after 4 days at 50° C. and atm. pres.) was 87.00%, the “solid form after compression (XRPD)” value ([2]; 2 tons for 2 minutes) was “no change in solid form” and the “IDR (intrinsic dissolution rate)” value ([2]; USP phosphate buffer pH 7.4, 37° C., 100 rpm, disk 0.5024 cm^2) was 0.9218 mg · min^−1 · cm^−2. The “solubility compared to NaCDC Form A (solubility curve)” value [3] was “slightly higher solubility”, the XRPD after heating ([4]; heated at 315° C.) was “different diffractogram than the starting material” and the XRPD after heating ([4]; heated at 360° C.) was “amorphous”. For the same compound, the “HPLC purity after heating” value ([4]; sample heated at 315° C., cooled to room temperature) was 66.9%, the “HPLC purity (%) at 212 nm” value ([5]; SDGR01, Ethanol (EtOH) 140 μL) was 83.36% and the “HPLC purity (%) at 212 nm” value ([5]; SDGR02, 2-Propanol 80 μL) was 81.26%. The “HPLC purity (%) at 212 nm” value ([5]; SDGR03, 2,2,2-Trifluoroethanol (TFE) 90 μL) was 90.87%, the XRPD ([5]; SDGR04, Diisopropyl ether 160 μL) was “SM, l.c” and the “HPLC purity (%) at 212 nm” value ([5]; SDGR05, MeOH:EtOAc (1:1 v/v) 260 μL) was 82.04%. The “HPLC purity (%) at 212 nm” value ([5]; SDGR06, MeOH:Acetone (1:1 v/v) 240 μL) was 85.56%, the “HPLC purity (%) at 212 nm” value ([5]; SDGR07, EtOH:MeCN (1:1 v/v) 190 μL) was 86.54% and the “HPLC purity (%) at 212 nm” value ([5]; SDGR08, EtOH:n-Heptane (1:1 v/v) 220 μL) was 90.36%.
